In brackets after ≈: the same amount, converted by molar mass.
What was measured:
[1] = Inhibition of pigeon liver dihydrofolate reductase; parameters: species or system Columba livia; details: read-out: I50
Columba livia = assay: Potency index, ratio of I50 for MTX to I50 for compound against pigeon liver dihydrofolate reductase
KB [2] = assay: Cytotoxicity against human KB cells; type: functional; details: read-out: ED50 (the source's name)
L1210 [3] = assay: Antitumor activity against mouse L1210 cells […] in mouse assessed as increase in life span at 200 mg/kg, ip qd from day 1 to day 9 relative to control; type: functional; details: route intraperitoneal
[4] = Cytotoxicity against human Hep2 cells; type: functional; details: HEp-2, read-out: ED50 (the source's name)
HEp-2 = assay: Potency index, ratio of ED50 for MTX to ED50 for compound against human Hep2 cells; type: functional
L1210 [5] = assay: Antitumor activity against mouse L1210 cells […] in mouse assessed as increase in life span at 100 mg/kg, ip qd from day 1 to day 9 relative to control; type: functional; details: route intraperitoneal
L1210 [6] = assay: Antitumor activity against mouse L1210 cells […] in mouse assessed as increase in life span at 25 mg/kg, ip qd from day 1 to day 9 relative to control; type: functional; details: route intraperitoneal
L1210 [7] = assay: Antitumor activity against mouse L1210 cells […] in mouse assessed as increase in life span at 200 mg/kg, ip qd administered on day 2 and day 6 relative to control; type: functional; details: route intraperitoneal
[8] = Dissociation constant, pKa of the compound; type: physicochemical
KB [9] = assay: Potency index, ratio of ED50 for MTX to ED50 for compound against human KB cells; type: functional
L1210 [10] = assay: Antitumor activity against mouse L1210 cells […] in mouse assessed as increase in life span at 20 mg/kg, ip qd from day 1 to day 9 relative to control; type: functional; details: route intraperitoneal
L1210 [11] = assay: Antitumor activity against mouse L1210 cells […] in mouse assessed as increase in life span at 0.44 mg/kg, ip qd from day 1 to day 9 relative to control; type: functional; details: route intraperitoneal
L1210 [12] = assay: Antitumor activity against mouse L1210 cells […] in mouse assessed as increase in life span at 500 mg/kg, ip qd from day 1 to day 9 relative to control; type: functional; details: route intraperitoneal
L1210 [13] = assay: Antitumor activity against mouse L1210 cells […] in mouse assessed as increase in life span at 1.5 mg/kg, ip qd from day 1 to day 9 relative to control; type: functional; details: route intraperitoneal
L1210 [14] = assay: Antitumor activity against mouse L1210 cells […] in mouse assessed as increase in life span at 10 mg/kg, ip qd from day 1 to day 9 relative to control; type: functional; details: route intraperitoneal
L1210 [15] = assay: Antitumor activity against mouse L1210 cells […] in mouse assessed as increase in life span at 0.67 mg/kg, ip qd from day 1 to day 9 relative to control; type: functional; details: route intraperitoneal
L1210 [16] = assay: Antitumor activity against mouse L1210 cells […] in mouse assessed as increase in life span at 50 mg/kg, ip qd from day 1 to day 9 relative to control; type: functional; details: route intraperitoneal
L1210 [17] = assay: Antitumor activity against mouse L1210 cells […] in mouse assessed as increase in life span at 1.3 mg/kg, ip qd from day 1 to day 9 relative to control; type: functional; details: route intraperitoneal

Row | Compound | IC50 [1] [nM] | Ratio (Columba livia) | EC50 (KB [2]) [µg/mL] | Ratio ED50 (KB [9]) | other results
1 | Nc1nc(N)c2nc(CNc3ccc(CC(=O)N[C@@H](CC(=O)O)C(=O)O)cc3)cnc2n1 | 1000 | 38 | > 100 | – | ILS at 200 mg/kg (L1210 [3]): 29%
2 | Nc1nc(N)c2nc(CN(Cc3ccccc3)c3ccc(C(=O)N[C@@H](CCC(=O)O)C(=O)O)cc3)cnc2n1 | 14000 | 310 | > 100 | – | –
3 | CN(Cc1cnc2nc(N)cc(N)c2n1)c1ccc(C(=O)N[C@@H](CCC(=O)O)C(=O)O)cc1 | 63 | 4.8 | – | – | EC50 [4]: 0.05 µg/mL (≈ 0.11 µM); Ratio ED50 (HEp-2): 13; ILS at 100 mg/kg (L1210 [5]): 64%
4 | Nc1nc(N)c2nc(CNc3ccc(C(=O)NCCCC(=O)O)cc3)cnc2n1 | 380 | 15 | > 100 | – | ILS at 25 mg/kg (L1210 [6]): 1%
5 | CN(CCCCC(=O)N[C@@H](CCC(=O)O)C(=O)O)Cc1cnc2nc(N)nc(N)c2n1 | 20000 | 770 | > 100 | – | –
6 | CN(Cc1cnc2nc(N)c(Br)c(N)c2n1)c1ccc(C(=O)N[C@@H](CCC(=O)O)C(=O)O)cc1 | 2500 | 190 | 76 (≈ 143 µM) | 19000 | ILS at 200 mg/kg (L1210 [7]): 1%; pKa [8]: 5.1
7 | Nc1nc(N)c2nc(CNc3ccc(S(=O)(=O)N[C@@H](CCC(=O)O)C(=O)O)cc3)cnc2n1 | 1100 | 39 | 45 (≈ 94.4 µM) | 11000 | ILS at 100 mg/kg (L1210 [5]): 27%
8 | Nc1nc(N)c2nc(CNc3ccc(C(=O)NC(CCCCC(=O)O)C(=O)O)cc3)cnc2n1 (stereo unspecified) | 13 | 0.5 | 0.025 (≈ 0.0534 µM) | 6.3 | ILS at 20 mg/kg (L1210 [10]): 57%
9 | Nc1nc(N)c2nc(CNc3ccc(C(=O)N[C@@H](CCC(=O)O)C(=O)O)nc3)cnc2n1 | 30 | 1.2 | 0.006 (≈ 0.0136 µM) | 1.5 | ILS at 0.44 mg/kg (L1210 [11]): 69%
10 | Nc1nc(N)c2nc(CNc3ccc(CCC(=O)N[C@@H](CCC(=O)O)C(=O)O)cc3)cnc2n1 | 460 | 33 | 37 (≈ 79 µM) | 9300 | ILS at 500 mg/kg (L1210 [12]): 1%
11 | CN(Cc1cnc2nc(N)nc(N)c2n1)c1ccc(C(=O)N[C@@H](CCC(=O)O)C(=O)O)cc1 [METHOTREXATE] | 26 | – | 0.004 (≈ 0.0088 µM) | – | ILS at 1.5 mg/kg (L1210 [13]): 72%
12 | CCN(Cc1cnc2nc(N)nc(N)c2n1)c1ccc(C(=O)N[C@@H](CCC(=O)O)C(=O)O)cc1 | 45 | 1 | 0.005 (≈ 0.0107 µM) | 1.3 | ILS at 10 mg/kg (L1210 [14]): 117%
13 | Nc1nc(N)c2nc(CNc3ccc(CC(=O)N[C@@H](CCC(=O)O)C(=O)O)cc3)cnc2n1 | 380 | 15 | 41 (≈ 90.2 µM) | 10000 | ILS at 500 mg/kg (L1210 [12]): 35%
14 | Nc1nc(N)c2nc(CNc3ccc(C(=O)N[C@@H](CCC(=O)O)C(=O)O)cc3)cnc2n1 [AMINOPTERIN] | 26 | 1 | 0.003 (≈ 0.00681 µM) | 0.75 | ILS at 0.67 mg/kg (L1210 [15]): 74%
15 | CN(Cc1ccc(C(=O)N[C@@H](CCC(=O)O)C(=O)O)cc1)Cc1cnc2nc(N)nc(N)c2n1 | 750 | 29 | 0.043 (≈ 0.0918 µM) | 11 | ILS at 50 mg/kg (L1210 [16]): 36%
16 | CCN(Cc1cnc2nc(N)nc(N)c2n1)c1c(Cl)cc(C(=O)N[C@@H](CCC(=O)O)C(=O)O)cc1Cl | 50 | 1.1 | 0.022 (≈ 0.0409 µM) | 5.5 | ILS at 100 mg/kg (L1210 [5]): 70%
17 | Nc1nc(N)c2nc(CNc3ccc(C(=O)NCC(=O)O)cc3)cnc2n1 | 1100 | 42 | 88 (≈ 239 µM) | 22000 | –
18 | CN(Cc1cnc2nc(N)c([N+](=O)[O-])c(N)c2n1)c1ccc(C(=O)N[C@@H](CCC(=O)O)C(=O)O)cc1 | 38000 | 1400 | > 100 | – | ILS at 200 mg/kg (L1210 [7]): 1%; pKa [8]: 4.3
19 | Nc1nc(N)c2nc(COc3ccc(C(=O)N[C@@H](CCC(=O)O)C(=O)O)cc3)cnc2n1 | 510 | 20 | 3.5 (≈ 7.93 µM) | 875 | ILS at 1.3 mg/kg (L1210 [17]): 32%
20 | Nc1nc(N)c2nc(CN(c3ccccc3)c3ccc(C(=O)N[C@@H](CCC(=O)O)C(=O)O)cc3)cnc2n1 | 280 | 11 | 26 (≈ 50.3 µM) | 6500 | –
